Experiments:
Details in all cases: 72 h
[1] = system: Vero E6; experiment: cell viability relative to DMSO; higher = less toxic
[2] = system: U2OS; experiment: as above
[3] = system: Caco-2; experiment: as above
[4] = system: HepG2; experiment: as above
[5] = system: Vero E6; experiment: drug sensitivity score (DSS) for viability; higher = more toxic; extreme values may be limits of the assay
[6] = system: U2OS; experiment: as above
[7] = system: Caco-2; experiment: as above
[8] = system: HepG2; experiment: as above
[9] = system: Vero E6; experiment: relative viability EC50 (midpoint between 100% and the lowest measured viability); higher = less toxic
[10] = system: U2OS; experiment: as above
[11] = system: Caco-2; experiment: as above
[12] = system: HepG2; experiment: as above
[13] = system: Calu-3; experiment: cell viability relative to DMSO; higher = less toxic
[14] = system: Calu-3; experiment: drug sensitivity score (DSS) for viability; higher = more toxic; extreme values may be limits of the assay
[15] = system: Calu-3; experiment: relative viability EC50 (midpoint between 100% and the lowest measured viability); higher = less toxic

SMILES | cell viability ([1]; 1 nM) | cell viability ([1]; 10 nM) | cell viability ([1]; 100 nM) | cell viability ([1]; 1000 nM) | cell viability ([1]; 10000 nM) | cell viability ([2]; 1 nM) | cell viability ([2]; 10 nM) | cell viability ([2]; 100 nM) | cell viability ([2]; 1000 nM) | cell viability ([2]; 10000 nM) | cell viability ([3]; 1 nM) | cell viability ([3]; 10 nM) | cell viability ([3]; 100 nM) | cell viability ([3]; 1000 nM) | cell viability ([3]; 10000 nM) | cell viability ([4]; 1 nM) | cell viability ([4]; 10 nM) | cell viability ([4]; 100 nM) | cell viability ([4]; 1000 nM) | cell viability ([4]; 10000 nM) | drug sensitivity score [5] | drug sensitivity score [6] | drug sensitivity score [7] | drug sensitivity score [8] | relative viability EC50 [9] | relative viability EC50 [10] | relative viability EC50 [11] | relative viability EC50 [12] | cell viability ([13]; 1 nM) | cell viability ([13]; 10 nM) | cell viability ([13]; 100 nM) | cell viability ([13]; 1000 nM) | cell viability ([13]; 10000 nM) | drug sensitivity score [14] | relative viability EC50 [15]
CC[C@H](c1ccc(O)cc1)[C@@H](CC)c1ccc(O)cc1 [hexestrol] | 94% | 100% | 92.2% | 99% | 108% | 97.4% | 95.2% | 96.7% | 95.7% | 100% | 104% | 97.4% | 98.2% | 95% | 101% | 92.7% | 96.2% | 93.2% | 109% | 116% | 0 | 0 | 0 | 0 | > 10 µM | > 10 µM | > 10 µM | > 10 µM |  |  |  |  |  |  | 
N#Cc1ccc(C(c2ccc(C#N)cc2)n2cncn2)cc1 [letrozole] | 106% | 106% | 114% | 99.9% | 105% | 104% | 105% | 99.6% | 107% | 101% | 106% | 107% | 96.2% | 105% | 97.3% |  |  |  |  |  | 0 | 0 | 0 |  | > 10 µM | > 10 µM | > 10 µM |  | 97.1% | 101% | 101% | 99.1% | 99% | 0 | > 10 µM
Cc1ccsc1/C=C/C1=NCCCN1C [morantel] | 108% | 104% | 110% | 101% | 96.8% | 98.2% | 104% | 97.2% | 100% | 96.9% | 94.6% | 86% | 72.7% | 94.6% | 84.2% |  |  |  |  |  | 0 | 0 | 0 |  | > 10 µM | > 10 µM | > 10 µM |  | 94.5% | 111% | 91.1% | 101% | 96.9% | 0 | > 10 µM
Cc1ncc([N+](=O)[O-])n1CC(O)CN1CCOCC1 (configuration not stated) [morinidazole] | 99.7% | 97.1% | 96.3% | 96.7% | 101% | 101% | 95.1% | 106% | 104% | 101% | 103% | 92% | 100% | 109% | 102% | 96.3% | 108% | 94.2% | 96.6% | 102% | 0 | 0 | 0 | 0 | > 10 µM | > 10 µM | > 10 µM | > 10 µM |  |  |  |  |  |  | 

From the supplement of paper PMC13380429
